Results from patent US6350739B1, “Methods of prevention and treatment of ischemic damage” (University of Florida Resarch Foundation, Inc., priority 1999, dated 2002).
“Also recorded” adds a separate entry of the source. Marks after values point to notes of the source that are not given here.

What was measured:
[1] = tested on: middle cerebral artery (MCA) occlusion; assay: Pretreatment with ent-17β-estradiol or 17β-estradiol sc in oil before MCA occlusion; type: in vivo, Sprague-Dawley female rats; conditions: for infarct area (mean±SEM): 100 μg/kg sc in oil 2 hours prior to 60 minute MCA occlusion, 24 hours reperfusion, vehicle 13.3±2.0
Description: Sprague-Dawley female rats ([…] body weight) were purchased from Charles River Laboratories, Inc. (Wilmington, Mass.). They were housed in pairs in hanging, stainless steel cage in a temperature controlled room (25° C.) with daily light cycle (light on 0700 to 1900 h daily) for a minimum of 3 days before surgery. All rats had free access to Purina Rat Chow and tap water. All procedures performed on animals were reviewed and approved by the Institutional Animal Care and Use Committee of the University of Florida before initiation of the study. Animals were ovariectomized at 1 week prior to middle cerebral artery (MCA) occlusion.
MCAO was achieved according to the methods described previously by us. Briefly, following administration of anesthetics of ketamine (60 mg/kg, ip) and xylazine (10 mg/kg, ip), the common carotid artery […] on the left side were exposed through a midline cervical incision and then gently dissected away from adjacent nerves. A 3-0 monofilament nylon suture was introduced into the left […] and gently advanced to the distal ICA until resistance was felt where the suture passed the bifurcation of the MCA and anterior cerebral artery (ACA). The thread was left in place for 60 minutes after which time re-perfusion was initiated. Rectal temperature was monitored and maintained between 36.5 and 37.0° C. during the entire stroke procedure. Each group of animals was decapitated after 24 hours of reperfusion. The brain was removed and placed in a metallic brain matrix for tissue slicing immediately after sacrifice. Five slices were made at […] posterior to the olfactory bulb. The slices were incubated for 30 minutes in a 2% solution of 2,3,5-triphenyltetrazolium chloride (ITC) in physiological saline at 37° C. and then were fixed in 10% formalin. The stained slices were photographed and subsequently measured for the surface area of the slices and the ischemic lesion area. Ischemic lesion volume was calculated as by the sums of the areas of ischemic lesion across the five slices divided by the total cross sectional area of these five brain slices.

[2] = tested on: ischemia induced by middle cerebral artery occlusion (MCAO); assay: Pretreatment with estrogen compound before middle cerebral artery occlusion (MCAO) in ovariectomized rats; type: in vivo, rat; parameters: % Survival: concentration or dose not given beside the values
Description: Rats were used as experimental models to test the effects of estrogen compounds in protecting against ischemic damage. To remove the naturally occurring source of estrogen, ovariectomies were performed prior to induction of ischemia.
Subsequent to the ovariectomy, rats were treated with an estrogen compound either by subcutaneous delivery with Silastic® tubes 24 hours prior to the MCA occlusion or by intravenous delivery as follows:
Subcutaneous sustained delivery: 17β- or 17α-estradiol was packed into 5 mm long Silastic® tubes (Dow-Corning, Midland, Mich.) according to the method of Mohammed et al. 1985 Ann. Neurol 18, 705-711. Sham (empty) tubes were similarly prepared as estrogen negative controls. […]
The control was administered HPCD only. The chemical delivery system is formulated so that the estrogen is slowly released from the carrier.
At 7 to 8 days after ovariectomy, a method for occluding the […] was applied to the rat using modifications of the methods of Longa et al. (1989) Stroke, vol. 20, 84-91; and Nagasawa et al. (1989) Stroke, vol.20, 1037-1043, with certain modifications, as described herein.
Animals were anesthetized by ip injection with ketamine (60 mg/kg) and xylazine (10 mg/kg). Rectal temperature was monitored and maintained between 36.5 and 37.0 C with a heat lamp throughout the entire procedure. The left carotid artery was exposed through a midline cervical incision. The left sternohyloid, sternomastoid, digastric (posterior belly) and the omohyloid muscles were divided and retracted. Part of the greater horn of the hyloid bone was cut to facilitate exposure of the distal external carotid artery (ECA). The common carotid artery (CCA), ECA, and internal carotid artery (ICA) were dissected away from adjacent nerves. The distal ECA and its branches, the CCA, and the pterygopalatine arteries were coagulated completely. A microvascular clip was placed on the ICA near skull base. A 2.5 cm length of 3-0 monofilament nylon suture was heated to create a globule for easy movement and blocking of the lumen of the vessel. This was introduced into the ECA lumen through the puncture. The suture was gently advanced to the distal ICA until it reached the clipped position. The microvascular clip was then removed and the suture was inserted until resistance was felt. The distance between the CCA bifurcation and the resistive point was about 1.8 cm. This operative procedure was completed within 10 minutes without bleeding. After the prescribed occlusion tine (40 minutes), the suture was withdrawn from the ICA and the distal ICA was immediately cauterized.
Animals that survived until the scheduled sacrifice time were sacrificed by decapitation. Scheduled post-ischemic sacrifices occurred at 6 hours, 24 hours and 1 week post MCAO (Table 1). For the 6-hour sample, animals were monitored continuously. […] Similarly, animals scheduled for the 1 week post-ischemic sacrifice were monitored for the first 4 hours after surgery and then daily thereafter.
The brains were isolated from the decapitated heads, sliced into 3 or 5 coronal tissue slices as described below and then stained with hematoxylin and eosin to determine the extent of the ischemic area Stained slices were photographed and subsequently imaged using a Macintosh Cadre 800 computer, equipped with an Image 1.47 software program for the assessment of the cross-sectional area of the ischemic lesion. These images and the calculated area of ischemic damage were stored in the program for later retrieval and data reduction. The significance of differences in mortality among the different treatment groups was determined using Chi-Square analysis.
Ovariectomized rats were treated with 5 mm Silastic® tubes containing 17α-estradiol at 24 hours prior to MCAO. At 24 hours after the MCAO, the animals were sacrificed and the brains extracted.

[3] = tested on: ischemia induced by middle cerebral artery occlusion (MCAO); assay: Post-treatment with E2-CDS after onset of MCAO in ovariectomized rats; type: in vivo, rat
Description: At 7 to 8 days after ovariectomy, a method for occluding the middle carotid artery was applied to the rat using modifications of the methods of Longa et al. (1989) Stroke, vol.
Animals were anesthetized by ip injection with ketamine (60 mg/kg) and xylazine (10 mg/kg). Rectal temperature was monitored and maintained between 36.5 and 37.0 C with a heat lamp throughout the entire procedure. The left carotid artery was exposed through a midline cervical incision. The left sternohyloid, sternomastoid, digastric (posterior belly) and the omohyloid muscles were divided and retracted. Part of the greater horn of the hyloid bone was cut to facilitate exposure of the distal external carotid artery (ECA). The common carotid artery (CCA), ECA, and internal carotid artery (ICA) were dissected away from adjacent nerves. The distal ECA and its branches, the CCA, and the pterygopalatine arteries were coagulated completely. A microvascular clip was placed on the ICA near skull base. A 2.5 cm length of 3-0 monofilament nylon suture was heated to create a globule for easy movement and blocking of the lumen of the vessel. This was introduced into the ECA lumen through the puncture. The suture was gently advanced to the distal ICA until it reached the clipped position. The microvascular clip was then removed and the suture was inserted until resistance was felt. […]

[4] = tested on: primary rat brain capillary endothelial cells (BCEC); assay: Brain capillary endothelial cell mortality under hypoglycemia (Trypan blue); type: cell-based; conditions: 2 nM
Description: Neurochemistry vol. 25, 715-717, 1975, incorporated herein by reference. […] The glucose concentration of the culture media was then adjusted from 20 mg % to 200 mg % by adding appropriate amount of D-(+)-glucose to the glucose-free media and monitored by Glucose and L-Lactate Analyzer (YSI model 2300 STAT plus, YSI, Inc., Yellow Springs, Ohio). The hypoglycemic cultures were maintained for 24 hours or 48 hours prior to staining with Trypan blue. Cell mortality was counted using Trypan blue staining method. Cell death percentage was calculated as dead cell/alive cell×100%. Statistical methods used included two-way analysis of variance, applied to determine the significance of the difference among the experimental groups. Kruskal-Wallis nonparametric analysis was used for data presented as percentage. […] P<0.05 was considered significant.

[5] = tested on: primary rat brain capillary endothelial cells (BCEC); assay: Brain capillary endothelial cell mortality under anoxia (Trypan blue); type: cell-based; conditions: 2 nM, 200 mg % glucose
Description: (§1) Primary rat brain capillary endothelial cells (BCEC) cultures were prepared following the method of Goldstein, J. Neurochemistry vol.
(§2) Nitrogen gas was influxed to replace the oxygen inside the chamber. The chamber was sealed and placed in the incubator for four hours for nonhypoglycemic cultures and 2 hours for hypoglycemic cultures.

[6] = tested on: primary rat brain capillary endothelial cells (BCEC); assay: Brain capillary endothelial cell mortality under combined anoxia and hypoglycemia; type: cell-based; conditions: 2 nM; 100 mg % glucose and 2 hours anoxia
Description: as §1, §2

[7] = tested on: ischemia induced by middle cerebral artery occlusion (MCAO); assay: Post-treatment at 0.5, 1, 2, 3 and 4 hours after MCAO, ischemic lesion volume; type: in vivo, rat; conditions: iv 100 μg/kg HPCD-complexed plus Silastic pellet at 0.5, 1, 2, or 3 hours post-occlusion; 48 hours after MCAO
Description: Ovariectomized, non-treated animals (OVX) and non-ovariectomized, non-treated animals (INT) were used as controls (n=12 and n=6, respectively). At 48 hours following MCAO, animals were sacrificed and ischemic lesion volume was determined by obtaining brain sections as previously described and staining with TTC.

[8] = 5 mm Silastic tube 24 hours prior to MCAO, sacrifice 24 hours after MCAO, vs sham
[9] = Total of all planned sacrifice times
[10] = planned sacrifice 1 Day after MCAO
[11] = planned sacrifice 1 Week after MCAO
[12] = planned sacrifice 6 hrs after MCAO

## C[C@@]12CC[C@H]3c4ccc(O)cc4CC[C@@H]3[C@H]1CC[C@H]2O [ent-17β-estradiol, (8α,9β,13α,14β,17α)-estra-1,3,5(10)-triene-3,17-diol]
[1]; 100 μg/kg sc in oil
  effectiveness in reducing percent lesion volume compared with 17β-estradiol: as effective in reducing the percent lesion volume as 17β-estradiol; also recorded: as effective a therapeutic agent as 17β-estradiol
[1]
  infarct area (mean±SEM): 5.3±1.7

## C[C@]12CC[C@@H]3c4ccc(O)cc4CC[C@H]3[C@@H]1CC[C@H]2O [17α-estradiol]
[2]; [8]
  reduction of ischemic area, slice C: 55%
  reduction of ischemic area, slice D: 66%
  reduction of ischemic area, slice E: 81%
[2]; sustained subcutaneous delivery initiated 24 hours prior to ischemic event
  protective effect in tissue slices A-E (FIG. 3): significant protective effect

## C[C@]12CC[C@@H]3c4ccc(O)cc4CC[C@H]3[C@@H]1CC[C@@H]2O [17β-estradiol]
[2]; 10 μg/kg sc injection two hours prior to MCAO, sacrifice at 24 hours, 9 mm caudal to olfactory bulb
  reduction of ischemic lesion size of the whole coronal section, region C: 46.3%
[2]; 10 μg/kg sc injection two hours prior to MCAO, sacrifice at 24 hours, 11 mm caudal to olfactory bulb
  reduction of ischemic lesion size of the whole coronal section, region D: 44.1%
[2]; [9]
  Number of Animals Alive: 14
  Number of Animals Dead: 4
[2]; Total of all planned sacrifice times, pretreatment 24 hours prior to MCAO
  % Survival: 78%
[2]; Total of all planned sacrifice times, pretreatment 24 hours prior to MCAO, listed as E2 Implant
  % Survival: 78* %
[2]; [10]
  Number of Animals Alive: 8
  Number of Animals Dead: 0
[2]; planned sacrifice 1 Day after MCAO, pretreatment 24 hours prior to MCAO
  % Survival: 100* %
[2]; [11]
  Number of Animals Alive: 3
  Number of Animals Dead: 1
[2]; planned sacrifice 1 Week after MCAO, pretreatment 24 hours prior to MCAO
  % Survival: 75* %
[2]; [12]
  Number of Animals Alive: 3
  Number of Animals Dead: 3
[2]; planned sacrifice 6 hrs after MCAO, pretreatment 24 hours prior to MCAO
  % Survival: 50%
[2]; pretreatment 24 hours prior to MCAO, 3 brain slices, sacrifice 1 day or 1 week, sham 25.6±5.7%
  ischemic lesion, percent of cross-sectional area of brain sections: 9.8±4.0%
[2]; pretreatment of ovariectomized rats before MCAO, untreated 65%
  mortality: 22%
[2]; subcutaneous injection two hours prior to ischemic event
  protective effect in tissue slices A-D (FIG. 2): significant protective effect
[3]; administered 40 minutes after MCAO, range over slices
  reduction of ischemic area: 45-90%
[3]; administered 90 minutes after MCAO
  reduction of ischemic area (area under the ischemic curve): 31%
[4]; medium glucose 20 mg %
  cell loss saved vs control: 23. %
[4]; medium glucose 40 mg %
  cell loss saved vs control: 28.4%
[4]; medium glucose 100 mg %
  cell loss saved vs control: 35.9%
[4]; normal glucose 200 mg %
  difference in percent cell death with and without estrogen: Little difference
[5]; 1 hour anoxic insult
  reduction of cell death: 28.4%
[5]; 4 hour anoxic insult
  reduction of cell death: 18.4%
[6]
  protection of BCEC from cumulative effect of hypoglycemia and anoxia: effective in protecting cultured BCEC
[7]
  protection, ischemic lesion volume: significant protection
[1]
  infarct area (mean±SEM): 5.3±1.6
[1]; 100 μg/kg sc in oil 2 hours prior to MCA occlusion, vs vehicle
  reduction of infarct: 60%
